Assay results taken from patent US9981945B2, “Pyrimidine derivatives as CFTR modulators” (NuBridge BioSciences, priority 2015, dated 2018).

Target: T1, ΔF508 mutant CFTR (Homo sapiens, UniProt P13569, DEL508-508)
T1 construct: expressed in transfected cells; host or cells: Fischer rat thyroid (FRT) cells
Test: Fluorescence (YFP halide quenching) assay of ΔF508 mutant CFTR activity in FRT cells
Type: cell-based
Set-up: key: fold of mean activity with forskolin alone (I− quenching rate)
Details: FRT cells expressing ΔF508-CFTR and YFP-H148Q/I152L, rescued at 27° C. 20-24 h; forskolin 20 μM + test compound 20 μM for 20 min; I− influx rate normalized to forskolin alone
Source text: The ΔF508 mutant CFTR activities of the CFTR modulators are detected using the Fluorescence Assay developed by Pedemonte (Pedemonte N., et al., Antihypertensive 1,4-dihydropyridines as correctors of the cystic fibrosis transmembrane conductance regulator channel gating defect caused by cystic fibrosis mutations, Mol. Pharmacol., 2005, 68, 1736-1746).
Fischer rat thyroid (FRT) cells, stably transfected with ΔF508 were retransfected with the YFP-H148Q/I152L fluorescent protein. The cells were plated (100,000 cells/well) on black 96-well microplates with clear plastic bottom (Corning Life Sciences, Acton, Mass.).
The 96-well microplates containing FRT cells expressing F508-CFTR and the halide-sensitive YFP were incubated at 27° C. for 20 to 24 h to allow rescue of the mutant protein to the plasma membrane. After incubation, cells were washed with PBS (containing 137 mM NaCl, 2.7 mM KCl, 8.1 mM Na2HPO4, 1.5 mM KH2PO4, 1 mM CaCl2, and 0.5 mM MgCl2) and stimulated for 20 min with forskolin (20 μM) and test compounds (20 μM) in a final volume of 60 μl. Microplates were then transferred to a microplate reader for CFTR activity determination. Each assay consisted of a continuous 14-s fluorescence reading (5 points per second) with 2 s before and 12 s after injection of 165 μl of an iodide-containing solution (PBS with Cl^− replaced by I^−). Final iodide concentration in the wells was 100 mM. […] To determine I^− influx rate, the final 11 s of the data for each well were fitted with an exponential function to extrapolate initial slope. CFTR activity was determined by measuring the rate of fluorescence quenching induced by extracellular addition of I^−. Data are normalized to the mean activity measured in the presence of forskolin alone.

T1 sequence (P13569 with tags, fused parts or gaps DEL508-508): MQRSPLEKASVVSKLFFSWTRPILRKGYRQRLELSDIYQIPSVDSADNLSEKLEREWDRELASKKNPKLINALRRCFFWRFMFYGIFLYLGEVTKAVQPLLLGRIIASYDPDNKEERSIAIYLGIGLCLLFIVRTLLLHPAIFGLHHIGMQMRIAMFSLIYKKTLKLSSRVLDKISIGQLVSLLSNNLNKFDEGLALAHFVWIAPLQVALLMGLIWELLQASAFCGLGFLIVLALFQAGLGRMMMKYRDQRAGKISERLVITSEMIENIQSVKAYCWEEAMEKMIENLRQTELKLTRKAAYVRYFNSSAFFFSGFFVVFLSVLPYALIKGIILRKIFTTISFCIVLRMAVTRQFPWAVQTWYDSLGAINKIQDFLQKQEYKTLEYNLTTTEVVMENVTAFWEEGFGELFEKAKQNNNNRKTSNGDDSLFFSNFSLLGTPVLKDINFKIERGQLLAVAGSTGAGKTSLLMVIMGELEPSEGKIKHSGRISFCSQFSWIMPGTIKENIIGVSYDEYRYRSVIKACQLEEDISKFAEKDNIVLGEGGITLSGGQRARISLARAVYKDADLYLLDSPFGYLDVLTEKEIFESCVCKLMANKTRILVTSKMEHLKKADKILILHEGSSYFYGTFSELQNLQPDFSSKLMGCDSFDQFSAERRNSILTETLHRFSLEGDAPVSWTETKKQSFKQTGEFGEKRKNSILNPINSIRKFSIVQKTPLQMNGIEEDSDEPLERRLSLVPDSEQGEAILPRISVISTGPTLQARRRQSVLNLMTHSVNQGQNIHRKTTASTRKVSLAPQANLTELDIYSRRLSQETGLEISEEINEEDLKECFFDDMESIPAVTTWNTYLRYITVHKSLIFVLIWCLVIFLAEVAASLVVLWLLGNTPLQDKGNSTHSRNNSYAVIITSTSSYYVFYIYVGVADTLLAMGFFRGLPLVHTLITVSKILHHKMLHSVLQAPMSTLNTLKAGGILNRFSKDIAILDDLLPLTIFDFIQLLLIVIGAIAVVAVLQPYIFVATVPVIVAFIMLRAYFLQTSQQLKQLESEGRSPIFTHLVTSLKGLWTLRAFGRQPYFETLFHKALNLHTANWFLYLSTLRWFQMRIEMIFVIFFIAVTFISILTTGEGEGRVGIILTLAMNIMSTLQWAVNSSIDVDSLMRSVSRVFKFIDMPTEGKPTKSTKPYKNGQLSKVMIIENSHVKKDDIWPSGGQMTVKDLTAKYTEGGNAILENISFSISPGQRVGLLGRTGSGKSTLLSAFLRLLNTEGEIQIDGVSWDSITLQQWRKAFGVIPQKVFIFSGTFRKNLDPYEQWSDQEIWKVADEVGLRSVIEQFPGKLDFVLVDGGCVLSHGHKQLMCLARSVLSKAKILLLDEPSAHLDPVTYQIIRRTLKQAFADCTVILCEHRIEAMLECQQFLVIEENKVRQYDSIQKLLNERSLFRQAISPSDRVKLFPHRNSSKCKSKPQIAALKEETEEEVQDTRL

Structure (SMILES) | CFTR Activity
Cl.NCC(CO)COc1ncncc1NC(=O)c1nc(-c2c(F)cccc2F)c(F)cc1N (centres unmarked) [Example 57, 3-amino-N-(4-(3-amino-2-(hydroxymethyl)propoxy)pyrimidin-5-yl)-6-(2,6-difluorophenyl)-5-fluoropicolinamide hydrochloride] | 2.1
Cl.NCC(CO)COc1ncncc1NC(=O)c1ccc(C(F)(F)F)c(-c2c(F)cccc2F)n1 (centres unmarked) [Example 58, N-(4-(3-amino-2-(hydroxymethyl)propoxy)pyrimidin-5-yl)-6-(2,6-difluorophenyl)-5-(trifluoromethyl)picolinamide hydrochloride] | 2.8
Cl.NCC(CO)COc1ncncc1NC(=O)c1nc(-c2c(F)cccc2F)c(C(F)(F)F)cc1N (centres unmarked) [Example 59, 3-amino-N-(4-(3-amino-2-(hydroxymethyl)propoxy)pyrimidin-5-yl)-6-(2,6-difluorophenyl)-5-(trifluoromethyl)picolinamide hydrochloride] | 3.0

Now from value to compound:

CFTR Activity | Structure (SMILES)
4.8 | Cl.NC1CCCC(Oc2ncncc2NC(=O)c2ccc(C(F)(F)F)c(-c3c(F)cccc3F)n2)C1 (centres unmarked) [Example 60, N-(4-((3-aminocyclohexyl)oxy)pyrimidin-5-yl)-6-(2,6-difluorophenyl)-5-(trifluoromethyl)picolinamide hydrochloride]
4.2 | Cl.Nc1cc(C(F)(F)F)c(-c2c(F)cccc2F)nc1C(=O)Nc1cncnc1OC1CCCC(N)C1 (centres unmarked) [Example 61, 3-amino-N-(4-((3-aminocyclohexyl)oxy)pyrimidin-5-yl)-6-(2,6-difluorophenyl)-5-(trifluoromethyl)picolinamide hydrochloride]
